Data on 4 molecules can be found in ChEMBL document CHEMBL1135758, “Toward a pharmacophore for drugs inducing the long QT syndrome: insights from a CoMFA study of HERG K(+) channel blockers” (J Med Chem, 2002).

By IC50 is commonly meant the point on the concentration scale where inhibition reaches its midpoint. Higher therefore signals a need for much substance.

In assay [1] the target is T1, Voltage-gated inwardly rectifying potassium channel KCNH2 (Homo sapiens, UniProt Q12809). The assay is described as follows: K+ channel blocking activity in Chinese hamster ovary cells expressing HERG Kv11.1. The format is functional, cell-based.
T1 sequence (Q12809 whole entry): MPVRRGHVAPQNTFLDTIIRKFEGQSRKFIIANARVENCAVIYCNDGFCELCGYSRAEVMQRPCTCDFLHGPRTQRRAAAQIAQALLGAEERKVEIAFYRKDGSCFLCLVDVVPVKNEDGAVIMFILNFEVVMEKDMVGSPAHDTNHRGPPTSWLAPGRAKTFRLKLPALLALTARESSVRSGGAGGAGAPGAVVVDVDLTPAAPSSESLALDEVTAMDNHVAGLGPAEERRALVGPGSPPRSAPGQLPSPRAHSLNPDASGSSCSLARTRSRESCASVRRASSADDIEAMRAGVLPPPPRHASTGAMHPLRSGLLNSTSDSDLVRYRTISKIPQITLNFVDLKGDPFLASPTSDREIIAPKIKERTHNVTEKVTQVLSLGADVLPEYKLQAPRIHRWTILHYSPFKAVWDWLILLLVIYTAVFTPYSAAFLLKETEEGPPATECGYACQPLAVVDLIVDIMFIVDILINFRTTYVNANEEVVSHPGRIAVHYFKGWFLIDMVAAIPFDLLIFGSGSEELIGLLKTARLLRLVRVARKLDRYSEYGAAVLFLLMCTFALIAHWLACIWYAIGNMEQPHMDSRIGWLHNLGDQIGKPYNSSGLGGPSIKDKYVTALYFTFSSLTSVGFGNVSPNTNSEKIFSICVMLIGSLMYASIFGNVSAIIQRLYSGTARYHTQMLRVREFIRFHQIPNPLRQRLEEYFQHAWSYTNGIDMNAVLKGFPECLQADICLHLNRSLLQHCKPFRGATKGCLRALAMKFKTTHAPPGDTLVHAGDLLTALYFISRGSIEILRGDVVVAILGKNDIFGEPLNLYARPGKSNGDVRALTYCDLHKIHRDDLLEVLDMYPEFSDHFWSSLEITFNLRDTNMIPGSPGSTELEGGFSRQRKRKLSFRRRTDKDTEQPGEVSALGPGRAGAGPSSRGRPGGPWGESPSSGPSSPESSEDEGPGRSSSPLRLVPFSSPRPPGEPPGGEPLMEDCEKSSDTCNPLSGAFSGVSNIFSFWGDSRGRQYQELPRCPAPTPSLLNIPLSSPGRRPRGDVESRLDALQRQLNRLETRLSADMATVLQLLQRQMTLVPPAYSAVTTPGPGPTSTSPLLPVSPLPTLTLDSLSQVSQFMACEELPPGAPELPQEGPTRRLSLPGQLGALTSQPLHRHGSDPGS
The target in assay [2] is T1, Voltage-gated inwardly rectifying potassium channel KCNH2. The assay is described as follows: (§1) K+ channel blocking activity in human embryonic kidney cells expressing HERG Kv11.1.
For assay [3] the target is unchanged. The assay is described as §1. The format is functional, cell-based.

`CN1CCN(CCCCN2C(=O)CN(/N=C/c3ccc(-c4ccc(Cl)cc4)o3)C2=O)CC1` [AZIMILIDE] showed an IC50 in assay [1] of 0.56 µM.

The molecule `COc1c(N2CCNC(C)C2)c(F)cc2c(=O)c(C(=O)O)cn(C3CC3)c12` (centres undefined) [GATIFLOXACIN] registered a 50% inhibitory concentration (IC50) in assay [1] of 130 µM. `CN(c1nccc(=O)[nH]1)C1CCN(c2nc3ccccc3n2Cc2ccc(F)cc2)CC1` [MIZOLASTINE] returned an IC50 in assay [2] of 350 nM. `C[C@@H]1CN(c2c(F)c(N)c3c(=O)c(C(=O)O)cn(C4CC4)c3c2F)C[C@H](C)N1` [SPARFLOXACIN]: it took 34.4 µM to reach half-maximal inhibition in assay [3] (IC50).
